≈ marks a conversion by molar mass, not a printed value. Entries after “also recorded” stand apart in the source; their conditions may differ.
Columns and labels:
UTI89 [1] = test: Mouse model of acute UTI, bladder bacterial CFU after UTI89 infection; format: in vivo, Escherichia coli; details: for total bacterial CFUs in the bladder: mice, 6 hpi
Description: The efficacy of in vivo mannoside treatment was evaluated after orally dosing animals with 50 mg/kg of mannosides ZFH-4269 (FIG. 1A), ZFH-5254 (FIG. 1B) and ZFH-5240 (FIG. 1C) or DMSO or PBS 30 min prior to infecting with UTI89. At 6 hours post-infection (hpi) the bladders were removed and total bacterial CFUs were quantitated. […] Next, analogs of 254 were evaluated in the same mouse model of urinary tract infection. Animals were orally dosed with 25 mg/kg of mannosides ZFH-4269 (FIG. 2A), 1CJ68 (FIG. 2B) and 1CJ70 (FIG. 2C) in 10% cyclodextrin or 10% cyclodextrin 30 min prior to infecting with UT189.
The efficacy of in vivo mannoside treatment was evaluated after orally dosing animals with 25 mg/kg of mannosides ZFH269, Prodrug FIM-4269, ZFH-5254, and ZFH-5240 in 10% cyclodextrin or 10% cyclodextrin 30 min prior to infecting with UTI89. At 6 hours post-infection (hpi) the bladders were removed and total bacterial CFUs were quantitated. […] Next, several different prodrugs were evaluated in the same mouse model of urinary tract infection. Animals were orally dosed with 25 mg/kg of mannosides ZFH-4269, prodrug FIM-1233 (FIG. 8B), prodrug FIM-6123 (FIG. 8C) and prodrug 269 in 10% cyclodextrin or 10% cyclodextrin 30 min prior to infecting with UT189.
(§1) The FimH-mannose interaction was further investigated in an effort to develop potential ligand-based antagonists of UTIs. […] The non-reducing Man4 anchors into the mannose-binding pocket while the GlcNAc folds over Thr51 allowing specific interactions with a hydrophobic tyrosine gate. Heptyl mannoside mimics the GlcNAc tail of oligomannose-3 and extends it further to increase interactions outside the binding pocket resulting in high affinity binding (Kd=5 nM). Based on the high affinity of heptyl mannose for FimH, the ability of heptyl mannose to reduce bacterial infection in our mouse model of UTI was tested. First, biofilm formation as a surrogate for IBCs formed in the bladder was evaluated. […] Thus, UPEC strain UTI89 was incubated with heptyl mannose prior to inoculation into the bladders of mice.
Bacteria were grown under type 1 pili-inducing conditions (2×24 h at 37° C. statically in LB). The bacteria were harvested and resuspended to an OD600 of 0.5 in PBS. Eight-week-old C3H/HeN (Harlan) female mice were anesthetized by inhalation of isoflurane and infected via transurethral catheterization with […] of the bacterial suspension, resulting in 1-2×10^7 inoculum. At 6 hpi, mice were sacrificed by cervical dislocation under anesthesia and the bladders were immediately harvested and processed as described below. All animal studies using mice were approved by the Animal Studies Committee of Washington University (Animal Protocol Number 20100002).
Mannoside ZFH-2056 was administered either IP (5 mg/kg) or orally (100 mg/kg) 30 min prior to inoculation with UTI89. To enumerate the bacteria present, mice were sacrificed at 6 hpi and bladders were aseptically removed and homogenized in 1 ml PBS, serially diluted and plated onto LB agar plates. CFU was enumerated after 16 h of growth at 37° C.

FimH [2] = target: T1, FimH (Escherichia coli, UniProt P08191); test: Hemagglutination inhibition (HAI) assay, guinea pig red blood cells; format: cell-based, E. coli; details: concentration inhibiting >90% hemagglutination of guinea pig red blood cells
T1 construct: endogenous in cells; host or cells: type 1 piliated uropathogenic E. coli (UPEC)
T1 sequence (P08191 22-300): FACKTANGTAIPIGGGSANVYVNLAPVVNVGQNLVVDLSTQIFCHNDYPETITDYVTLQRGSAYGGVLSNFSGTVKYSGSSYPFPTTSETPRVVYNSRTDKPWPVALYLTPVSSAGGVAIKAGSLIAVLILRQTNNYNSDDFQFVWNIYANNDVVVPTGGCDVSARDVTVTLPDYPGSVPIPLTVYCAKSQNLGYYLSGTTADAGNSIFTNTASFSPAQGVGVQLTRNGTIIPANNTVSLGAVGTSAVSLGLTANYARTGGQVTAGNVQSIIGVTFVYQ
Description: FIG. 15 depicts the hemagglutination assay (HA) used to assess the compounds' ability to block FimH mediated binding. The HAI titer quantitatively measure the effect of inhibitors on blocking the FimH-mediated hemagglutination (HA) of guinea pig red blood cell infected with E. coli.
In some embodiments, activity of the compound is measured using hemmagglutination titer of guinea pig red blood cells. Hemagglutination of guinea pig red blood cells by type1 piliated UPEC is dependent upon FimH mannose binding ability and serial dilutions allow a quantitative analysis.
Hemagglutination assays for mannose-sensitive agglutination of guinea pig red blood cells were performed as previously described.

[3] = Rat pharmacokinetics, IV and PO; format: in vivo
Description: Mannoside compounds FIM-4269, FIM-5240, FIM-5254, FIM-1CJ82 and FIM-1CJ66 (FIG. 3) were evaluated for pharmacokinetics in the rat. Mannosides were dose IV at 3 mg/kg and PO at 10 mg/kg. Urine and plasma were collected at 15 min, 30 min, 1 hour, 2 hours, 4 hours and 8 hours.

[4] = Mouse oral PK, mannoside concentration in urine; format: in vivo; details: mice, 50 mg/kg oral; for detectability in urine: samples at 1, 3, 6 and 8 hours
Description: Compounds ZFH-4269 (FIG. 6A), ZFH-5254 (FIG. 6B), ZFH5240 (FIG. 6C), and a Prodrug were dosed at 50 mg/kg and plasma and urine samples were taken at 1, 3, 6 and 8 hours after dosing. […] Taken together, the high oral bioavailability and in vivo efficacy observed in animal studies support mannosides as promising therapeutic candidates for UTI treatment/prevention.
For intraperitoneal dosing, 50 μl of a 2 mg/ml (5 mg/kg) or 4 mg/ml (10 mg/kg) solution of ZFH-2056 in PBS was injected into the peritoneal cavity of the mouse. For oral dosing, 100 μl of a 20 mg/ml (100 mg/kg) solution of ZFH-2056 in 8% DMSO was inoculated with a gavage needle into the mouse stomach. Urine was collected at 30 min, 1, 2, 3, 4, 6, and 8 h post-treatment. An equal volume of 10 μM internal standard (ZFH-2050) was added to the urine. Mannosides were extracted from the urine by loading on C18 columns (100 mg, Waters), washing with 30% methanol, and eluting with 60% methanol. Vacuum-concentrated eluates were analyzed using liquid chromatography-mass spectrometry system30 with a lower heated capillary temperature of 190° C. and a gradiert as follows: Solvent B (80% acetonitrile in 0.1% formic acid) was held constant at 5% for 5 minutes, increased to 44% B by 45 minutes, and then to a 95% B by 65 minutes. SRM mode quantification was performed with collision gas energy of 30% for the following MS/MS transitions (precursor m/z/product m/z): compound ZFH-2056, 447/285; compound ZFH-2050, 390/228. Absolute quantification was achieved by comparison to a calibration curve.

UPEC biofilm formation = test: Biofilm assay; format: cell-based, Escherichia coli; details: 1 mM
Description: as §1
UTI89 was grown in LB broth in wells of PVC microtiter plates at 23° C. in the presence of individual mannosides at varying concentrations. After 48 h of growth, wells were rinsed with water and stained with crystal violet for quantification as described. For biofilm disruption activity in PVC plates, UTI89 was grown in LB broth in wells of PVC microtiter plates at 23° C. After 24 h of growth, mannoside was added and biofilms were grown for an additional 16 h. Wells were then rinsed, stained with crystal violet and quantified. […]

FimH [5] = target: T1, FimH; test: Binding affinity to FimH; parameters: species or system E. coli
Description: as §1

UTI89 [6] = test: microbe, parasite or virus in culture; details: Escherichia coli
PBC-1 = test: Growth curve / MIC in TMP-SMZ, PBC-1; format: cell-based; details: Escherichia coli; PBC-1, growth curves in TMP-SMZ; read-out: Minimum Inhibition Concentration (MIC)
Description: Mice were IP treated with 6 30 min prior to inoculation with bacteria and compared to a control group of untreated animals. After inoculation with UTI89 or PBC-1, bacterial CFUs were quantified at 6 hpi.
Mannoside ZFH-2056 was added at 100 μM. Growth curves were performed in a 96-well plate at 37° C. with A600 readings taken every 30 min for 8 h.

UTI89 [7] = test: UTI89 biofilm formation in urine under flow; format: cell-based, Escherichia coli; details: 1% in urine under flow
Excerpt: To investigate the potential therapeutic effects of mannosides on CAUTI, we first assessed the inhibitory effects of methyl-a-D-mannopyranoside (methyl mannose), on UTI89 biofilm formation in urine under flow.

[8] = 25 mg/kg oral in 10% cyclodextrin 30 min prior to infecting with UTI89

CNC(=O)c1cccc(-c2ccc([C@@H](O)C3OC(CO)C(O)C(O)C3O)c(C)c2)c1 (single isomer, unassigned) [Example 18A]
total bacterial CFUs in the bladder (UTI89 [1]; [8]): drop in bacterial counts
total bacterial CFUs in the bladder (UTI89 [1]; 50 mg/kg oral 30 min prior to infecting with UTI89, vs DMSO or PBS, listed as 240, 50 mg/kg): reduced bacterial titers in the bladder relative to DMSO and PBS
total bacterial CFUs in the bladder (UTI89 [1]; 50 mg/kg oral 30 min prior to infecting with UTI89, vs DMSO or PBS, listed as ZFH-5240, 50 mg/kg): drop in bacterial counts
HAI Titer EC>90 (FimH [2]): 0.031 µM
time plasma concentration remained above the limit of detection ([3]; IV 3 mg/kg): 2.5 h
mean plasma concentration / PK after IV dose ([3]; IV 3 mg/kg, listed as FIM-5240, 3 mg/kg): the highest relative to the other 4 mannosides; also recorded: best PK
pharmacokinetics after PO dose ([3]; PO 10 mg/kg): best pharmacokinetics relative to the other mannosides
time at which plasma concentration fell below the limit of detection ([3]; PO 10 mg/kg): 2 h
detectability in urine [4]: detectable in the urine out to 8 hours post-treatment
level of concentration in the urine ([4]; within a 6-hour period): consistently maintained a high level of concentration in the urine

Cc1cc(-c2ccc3cc[nH]c(=O)c3c2)ccc1O[C@H]1O[C@@H](CO)[C@@H](O)[C@H](O)[C@H]1O [Example 7, 7-[3-methyl-4-[(2R,3R,4S,5S,6S)-3,4,5-trihydroxy-6-(hydroxymethyl)tetrahydropyran-2-yl]oxy-phenyl]-2H-isoquinolin-1-one]
total bacterial CFUs in the bladder (UTI89 [1]; [8]): drop in bacterial counts
total bacterial CFUs in the bladder (UTI89 [1]; 50 mg/kg oral 30 min prior to infecting with UTI89, vs DMSO or PBS, listed as 254, 50 mg/kg): reduced bacterial titers in the bladder relative to DMSO and PBS
total bacterial CFUs in the bladder (UTI89 [1]; 50 mg/kg oral 30 min prior to infecting with UTI89, vs DMSO or PBS, listed as ZFH-5254, 50 mg/kg): drop in bacterial counts
HAI Titer EC>90 (FimH [2]): 0.030 µM
detectability in urine [4]: detectable in the urine out to 8 hours post-treatment

CCCCCCCO[C@H]1O[C@H](CO)[C@@H](O)[C@H](O)[C@@H]1O [Heptyl mannoside]
virulence in mouse model of UTI (UTI89 [1]; UTI89 incubated with 5 mM compound prior to inoculation into bladders, 6 hours post-infection): significant attenuation of virulence
UPEC biofilm formation in vitro (UPEC biofilm formation): inhibited UPEC biofilm formation
Kd (FimH [5]): 5 nM

Cc1cc(NS(=O)(=O)c2ccc(N)cc2)no1 [SMZ, Sulfamethoxazole]
MIC (UTI89 [6]): 0.25 µg/mL (≈ 0.987 µM)
MIC (PBC-1): 1280 µg/mL (≈ 5050 µM)

CNC(=O)c1cccc(-c2ccc(O[C@H]3O[C@@H](CO)[C@@H](O)[C@H](O)[C@H]3O)c(C)c2)c1 [ZFH-4269, N-methyl-3-[3-methyl-4-[(2R,3R,4S,5S,6S)-3,4,5-trihydroxy-6-(hydroxymethyl)tetrahydropyran-2-yl]oxy-phenyl]benzamide]
bladder titers (UTI89 [1]; acute UTI model (FIG. 27D)): significantly reduce bladder titers
total bacterial CFUs in the bladder (UTI89 [1]; 25 mg/kg oral in 10% cyclodextrin 30 min prior to infecting with UTI89, 25 mg/kg): drop in bacterial counts
total bacterial CFUs in the bladder (UTI89 [1]; 25 mg/kg oral in 10% cyclodextrin 30 min prior to infecting with UTI89, listed as ZFH269, 25 mg/kg): drop in bacterial counts; also recorded: most efficiently reduced bacterial titers in the bladder; also recorded: significantly reduced bacterial titers in the bladder
total bacterial CFUs in the bladder (UTI89 [1]; 50 mg/kg oral 30 min prior to infecting with UTI89, vs DMSO or PBS, 50 mg/kg): drop in bacterial counts
total bacterial CFUs in the bladder (UTI89 [1]; 50 mg/kg oral 30 min prior to infecting with UTI89, vs DMSO or PBS, listed as 269, 50 mg/kg): reduced bacterial titers in the bladder relative to DMSO and PBS
detectability in urine [4]: detectable in the urine out to 8 hours post-treatment

CO[C@H]1O[C@H](CO)[C@@H](O)[C@H](O)[C@@H]1O [methyl mannose, methyl-a-D-mannopyranoside]
biofilm-adherent cells (UTI89 [7]; p=0.0012 vs untreated): significantly reduced
biofilm biomass (UTI89 [7]; p=0.0022 vs untreated): significantly reduced
